{"source": "patent US20260207760A1", "about": "“COMBINATIONS OF CD33 ANTIBODY DRUG CONJUGATE WITH CHEMOTHERAPEUTIC AGENTS” (Glykos Biomedical Oy, priority 2022, published 2026)", "key": {"MOLM-13 cells [1]": {"test_system": "MOLM-13 cells", "assay": "Toxicity assay of chemotherapeutic agents, MOLM-13 cells (PrestoBlue viability)", "format": "cell-based, human", "details": "4 days", "method": "For toxicity assay, MOLM-13 cells were seeded for 10 000 cells/well of 96-well plate. The tested chemotherapeutic agents were added as 2-fold stock solutions and incubated in duplicate with cells for 4 days. The compounds were tested at concentrations 0.1, 1, 10, 100, 1000, and 10 000 nM. […] After 4 days incubation, the viability of the cells was determined with PrestoBlue Cell Viability Reagent (Life Technologies) according to the manufacturer's instructions. The percentage of viable cells was calculated by dividing the sample absorbance value with untreated cell control value and multiplying by 100%."}, "KG-1 cells": {"test_system": "KG-1 cells", "assay": "Toxicity of chemotherapeutic agents, KG-1 cells (PrestoBlue viability)", "format": "cell-based", "details": "4 days", "method": "Toxicity of chemotherapeutic agents was tested with high CD33-positive KG-1 cell line (DSMZ-German Collection of Microorganisms and Cell Cultures; Cat. No. ACC 14). KG-1 cells were seeded to non-treated 96-well plate 15000 cells/well and diluted compounds were added to cells in duplicates. Dilution series (1:10) of compounds were prepared starting from 20 μM to 0.2 nM and when added to cells they diluted 2× more. Cell control was untreated cells in culture medium.\nCells with chemotherapeutic agents were cultured for 4 days and then the viability was measured with PrestoBlue cell viability reagent according to the manufacturer's (Life Technologies) instructions. Results were calculated from 5-hour Prestoblue reaction and the percentage of viable cells was calculated by dividing the sample absorbance value with cell control value."}, "HL-60 cells": {"test_system": "HL-60 cells", "assay": "Toxicity assay of chemotherapeutic agents, HL-60 cells (PrestoBlue viability)", "format": "cell-based, human", "method": "HL-60 cells (ATCC®, cat. no. CCL-240™), derived from human promyelocytic leukemia, were cultured in Iscove's Modified Dulbecco's Medium (Gibco, Life Technologies) supplemented with 20% heat inactivated FBS (Gibco, Life Technologies).\nFor toxicity assay, HL-60 cells were seeded for 7500 cells/well of 96-well plate. The chemotherapeutic agents were added as 2-fold stock solutions and incubated with cells for 5 days.\nAll other compounds were tested at concentrations 0.1, 1, 10, 100, 1000, and 10 000 nM. […] The percentage of viable cells was calculated by dividing the sample absorbance value with untreated cell control value and multiplying by 100%.\nAll compounds were tested at concentrations of 0.1-10 000 nM.\nIC50 values were determined after average % and standard deviations were transferred to GraphPad Prism 9.1.2. Dose-response curves were generated and the IC50% values of the samples were obtained by non-linear regression analysis (Inhibitor vs. response, variable slope (four parameters)) using the software."}, "MOLM-13 cells [2]": {"test_system": "MOLM-13 cells", "assay": "MOLM-13 cell mouse xenograft efficacy study", "details": "for toxicity in mice: clinical signs, general behavior, macroscopic changes in major organs; for Average tumor size / Tumor size of individual mice / TGI (average tumor size compared to Vehicle): day 15 after tumor inoculation, combination of the two; for Average tumor size / Tumor size of individual mice: LNAuM 0.3 mg/kg single dose i.v., venetoclax 100 mg/kg p.o. daily; for TGI (average tumor size compared to Vehicle): LNAuM 0.3 mg/kg single dose"}, "patient lymphocytes": {"test_system": "patient lymphocytes", "assay": "Ex vivo AML patient samples, viable lymphocytes by flow cytometry, 5-day assay", "details": "CD33-negative lymphocytes in AML patient samples, five days", "method": "(§1) AML cells were rapidly thawed in a 37° C. water bath and treated with Denarase (250 U/μl). The cells were cultured in SFEM II medium ([…] Technologies) supplemented with 20 ng/ml SCF, 20 ng/ml TPO, and 20 ng/ml FLT3-L. The compounds were added the same day to 96-well conical bottom plates at seven different concentrations using an acoustic liquid handling device (Echo 550, Labcyte Inc), on top of 10 μl of culturing medium/well. A total of 100,000 cells were seeded per well in a volume of 100 μl. […] All antibodies were obtained from BD biosciences and used at a dilution of 1:100, except CD3 in 1:50. Following a 20-minute incubation with the antibodies, the cells were centrifuged, and 25 μl of Annexin-V and 7-AAD mixture, both diluted 1:50 in Annexin V binding buffer, were added to each well. After a 10-minute incubation, the total number of viable blasts (CD34 or CD117), lymphocytes (CD3) and CD33-positive cells in each well was counted using Forecyte software (Sartorius) and normalized to DMSO control containing wells.\n(§2) The AML samples were exposed to LNAuM, lintuzumab, MMAU, or gemtuzumab ozogamicin (GO; Mylotarg, Pfizer) for five days, after which remaining viable blast and lymphocytes were quantified using flow cytometry. […] Subsequently, we assessed toxicity against lymphocytes (CD33-negative) in the same samples."}, "patient blasts": {"test_system": "patient blasts", "assay": "Ex vivo AML patient samples, viable blasts by flow cytometry, 5-day assay", "format": "cell-based, human", "details": "five days; for IC50: six AML patient samples, read-out: median IC50 (absolute) against blasts; for activity against blasts: AML patient samples", "method": "as §1, §2"}, "[3]": {"details": "Homo sapiens, 120 h, HL-60 cells, 5 days incubation, read-out: IC50"}}, "note": "Several values for one entry are separate records, joined by “and”; a condition that tells them apart may be missing. Identical values can stand only once. Counter-ions that a name gives are not always drawn. Like-named read-outs stand apart in the source and are kept apart here."}
{"molecule": "COc1cccc2c1C(=O)c1c(O)c3c(c(O)c1C2=O)C[C@@](O)(C(C)=O)C[C@@H]3O[C@H]1C[C@H](N)[C@H](O)[C@H](C)O1", "note": "[Daunorubicin-HCl]", "values": [{"measurement": "IC50", "setting": "MOLM-13 cells [1]; Homo sapiens, 96 h", "value": 13, "unit": "nM"}, {"measurement": "IC50", "setting": "KG-1 cells; Homo sapiens, 96 h", "value": 55, "unit": "nM"}, {"measurement": "IC50", "setting": "HL-60 cells; Homo sapiens, HL-60, 120 h", "value": 15, "unit": "nM"}]}
{"molecule": "CC1(C)CCC(CN2CCN(c3ccc(C(=O)NS(=O)(=O)c4ccc(NCC5CCOCC5)c([N+](=O)[O-])c4)c(Oc4cnc5[nH]ccc5c4)c3)CC2)=C(c2ccc(Cl)cc2)C1", "note": "[Venetoclax]", "values": [{"measurement": "IC50", "setting": "MOLM-13 cells [1]; Homo sapiens, 96 h", "value": 24, "unit": "nM"}, {"measurement": "IC50", "setting": "KG-1 cells; Homo sapiens, 96 h", "value": 2300, "unit": "nM"}, {"measurement": "IC50", "setting": "HL-60 cells; [3]", "value": 112, "unit": "nM"}, {"measurement": "toxicity in mice", "setting": "MOLM-13 cells [2]", "value": "no toxicity"}, {"measurement": "Average tumor size", "setting": "MOLM-13 cells [2]", "value": 194, "unit": "mm^3"}, {"measurement": "Tumor size of individual mice", "setting": "MOLM-13 cells [2]", "value": "134.946 mm^3 and 184.96 mm^3 and 249.64 mm^3 and 246.895 mm^3 and 122.793 mm^3 and 226.1475 mm^3"}, {"measurement": "TGI (average tumor size compared to Vehicle)", "setting": "MOLM-13 cells [2]; venetoclax 100 mg/kg", "value": 0.45}]}
{"molecule": "gemtuzumab ozogamicin [GO]", "values": [{"measurement": "cytotoxic activity against lymphocytes", "setting": "patient lymphocytes", "value": "significant lymphocyte toxicity"}, {"measurement": "IC50", "setting": "patient lymphocytes; read-out: median IC50 against lymphocytes", "value": 9, "unit": "nM"}, {"measurement": "IC50", "setting": "patient blasts", "value": 0.3, "unit": "nM"}]}
{"molecule": "CO[C@@H]1[C@H](N(C)C(=O)c2ccccc2)C[C@H]2O[C@]1(C)n1c3ccccc3c3c4c(c5c6ccccc6n2c5c31)C(=O)NC4", "note": "[Midostaurin]", "values": [{"measurement": "IC50", "setting": "MOLM-13 cells [1]; Homo sapiens, 96 h", "value": 14, "unit": "nM"}]}
{"molecule": "Nc1ccn([C@@H]2O[C@H](CO)[C@@H](O)[C@@H]2O)c(=O)n1", "note": "[Cytarabine]", "values": [{"measurement": "IC50", "setting": "MOLM-13 cells [1]; Homo sapiens, 96 h", "value": 112, "unit": "nM"}, {"measurement": "IC50", "setting": "KG-1 cells; Homo sapiens, 96 h", "value": 230, "unit": "nM"}, {"measurement": "IC50", "setting": "HL-60 cells; [3]", "value": 298, "unit": "nM"}]}
{"molecule": "Gilteritinib hemifumarate", "values": [{"measurement": "IC50", "setting": "MOLM-13 cells [1]", "value": 24, "unit": "nM"}, {"measurement": "IC50", "setting": "KG-1 cells", "value": 1700, "unit": "nM"}, {"measurement": "IC50", "setting": "HL-60 cells; read-out: IC50", "value": 425, "unit": "nM"}]}
{"molecule": "CCC(C)C(C(CC(=O)N1CCCC1C(OC)C(C)C(=O)NC(C)C(OC1OC(C(=O)O)C(O)C(O)C1O)c1ccccc1)OC)N(C)C(=O)C(NC(=O)C(NC)C(C)C)C(C)C", "note": "[MMAU, monomethylauristatin E β-D-glucuronide]", "values": [{"measurement": "cytotoxic activity against lymphocytes", "setting": "patient lymphocytes", "value": "did not exhibit cytotoxic activity"}, {"measurement": "activity against blasts", "setting": "patient blasts", "value": "modest or no activity"}]}
{"molecule": "lintuzumab: anti-CD33 antibody comprising the light chain of SEQ ID NO:1 and the heavy chain of SEQ ID NO:2", "values": [{"measurement": "cytotoxic activity against lymphocytes", "setting": "patient lymphocytes", "value": "did not exhibit cytotoxic activity"}, {"measurement": "activity against blasts", "setting": "patient blasts", "value": "modest or no activity"}, {"measurement": "tumor growth inhibition", "setting": "MOLM-13 cells [2]; lintuzumab naked antibody 10 mg/kg single dose, non-binding IgG1 ADC control 3 mg/kg single dose", "value": "only modest tumor growth inhibition"}]}
{"molecule": "LNAuM: antibody-drug-conjugate (ADC) comprising the lintuzumab antibody, conjugated to MMAU, via a cleavable linker", "values": [{"measurement": "cytotoxic activity against lymphocytes", "setting": "patient lymphocytes", "value": "did not exhibit cytotoxic activity"}, {"measurement": "IC50", "setting": "patient blasts", "value": 16, "unit": "nM"}, {"measurement": "tumors disappeared and did not regrow during the whole study", "setting": "MOLM-13 cells [2]; LNAuM single dose of 3 mg/kg", "value": "6/6"}, {"measurement": "tumor growth versus control group", "setting": "MOLM-13 cells [2]; all doses (LNAuM 0.1-3 mg/kg single dose; venetoclax 100 mg/kg, 10 daily doses)", "value": "inhibited tumor growth"}, {"measurement": "toxicity in mice", "setting": "MOLM-13 cells [2]", "value": "no toxicity"}, {"measurement": "Average tumor size", "setting": "MOLM-13 cells [2]", "value": 201, "unit": "mm^3"}, {"measurement": "Tumor size of individual mice", "setting": "MOLM-13 cells [2]", "value": "204.723 mm^3 and 229.992 mm^3 and 239.704 mm^3 and 153.6 mm^3 and 106.624 mm^3 and 271.472 mm^3"}, {"measurement": "TGI (average tumor size compared to Vehicle)", "setting": "MOLM-13 cells [2]; venetoclax 100 mg/kg", "value": 0.46}, {"measurement": "outcome at study end", "setting": "MOLM-13 cells [2]; day 54 after tumor inoculation, venetoclax 100 mg/kg, LNAuM 1 mg/kg, combination", "value": "two animals were sacrificed due to tumor growth, and in the rest of the animals there was a palpable tumor"}]}
